Reference: ChEMBL document CHEMBL1287741, “Synthesis, antiproliferative activity in cancer cells and theoretical studies of novel 6α,7β-dihydroxyvouacapan-17β-oic acid Mannich base derivatives” (2010)
In brackets after ≈: the same amount, converted by molar mass.

Tests used:
Assay type in all cases: functional
[1] = test system: NCI/ADR-RES; test: Growth inhibition of human NCI-ADR-RES cells after 48 hrs by sulforhodamine B assay
[2] = test system: MCF7; test: Growth inhibition of human MCF7 cells after 48 hrs by sulforhodamine B assay; conditions: MCF7, 48 h
[3] = test system: 786-0; test: Growth inhibition of human 786-0 cells after 48 hrs by sulforhodamine B assay; conditions: 786-0, 48 h
[4] = test system: NCI-H460; test: Growth inhibition of human NCI-H460 cells after 48 hrs by sulforhodamine B assay; conditions: NCI-H460, 48 h
[5] = test system: HT-29; test: Growth inhibition of human HT-29 cells after 48 hrs by sulforhodamine B assay; conditions: HT-29, 48 h
[6] = test system: OVCAR-3; test: Growth inhibition of human OVCAR-3 cells after 48 hrs by sulforhodamine B assay; conditions: OVCAR-3, 48 h
[7] = test system: PC-3; test: Growth inhibition of human PC3 cells after 48 hrs by sulforhodamine B assay; conditions: PC-3, 48 h
[8] = test system: UACC-62; test: Growth inhibition of human UACC62 cells after 48 hrs by sulforhodamine B assay; conditions: UACC-62, 48 h
[9] = test system: K562; test: Growth inhibition of human K562 cells after 48 hrs by sulforhodamine B assay; conditions: K562, 48 h

Row | SMILES | GI50 [1] | TGI [1] | GI50 [2] | TGI [2] | GI50 [3] | TGI [3] | GI50 [4] | TGI [4] | GI50 [5] | TGI [5] | GI50 [6] | TGI [6] | GI50 [7] | TGI [7] | GI50 [8] | TGI [8] | GI50 [9] | TGI [9]
1 | CC1(C)CCC[C@]2(C)[C@H]3Cc4oc(CN5CCCCC5)cc4[C@H]4C(=O)O[C@@H]([C@H](O)[C@@H]12)[C@@H]43 | 2.65 µg/mL (≈ 6.2 µM) | 7.1 µg/mL (≈ 16.6 µM) | 0.88 µg/mL (≈ 2.06 µM) | 3.82 µg/mL (≈ 8.93 µM) | 2.31 µg/mL (≈ 5.4 µM) | 4.11 µg/mL (≈ 9.61 µM) | 2.5 µg/mL (≈ 5.85 µM) | 4.64 µg/mL (≈ 10.9 µM) | 1.76 µg/mL (≈ 4.12 µM) | 2.23 µg/mL (≈ 5.22 µM) | 2.37 µg/mL (≈ 5.54 µM) | 4.36 µg/mL (≈ 10.2 µM) | 0.27 µg/mL (≈ 0.631 µM) | 0.78 µg/mL (≈ 1.82 µM) | 2.44 µg/mL (≈ 5.71 µM) | 3.96 µg/mL (≈ 9.26 µM) | 0.32 µg/mL (≈ 0.748 µM) | 4.55 µg/mL (≈ 10.6 µM)
2 | CC1(C)CCC[C@]2(C)[C@H]3Cc4oc(CN5CCOCC5)cc4[C@H]4C(=O)O[C@@H]([C@H](O)[C@@H]12)[C@@H]43 | 2.73 µg/mL (≈ 6.36 µM) | 6.34 µg/mL (≈ 14.8 µM) | 2.45 µg/mL (≈ 5.7 µM) | 4.77 µg/mL (≈ 11.1 µM) | 2.37 µg/mL (≈ 5.52 µM) | 4.04 µg/mL (≈ 9.41 µM) | 2.69 µg/mL (≈ 6.26 µM) | 4.05 µg/mL (≈ 9.43 µM) | 1.68 µg/mL (≈ 3.91 µM) | 3.68 µg/mL (≈ 8.57 µM) | 2.6 µg/mL (≈ 6.05 µM) | 8.05 µg/mL (≈ 18.7 µM) | 0.27 µg/mL (≈ 0.629 µM) | 1.27 µg/mL (≈ 2.96 µM) | 2.5 µg/mL (≈ 5.82 µM) | 4.36 µg/mL (≈ 10.1 µM) | 2.39 µg/mL (≈ 5.56 µM) | 8.24 µg/mL (≈ 19.2 µM)
3 | CC1(C)CCC[C@@]2(C)C1[C@@H](O)[C@@H]1OC(=O)[C@@H]3c4ccoc4C[C@H]2[C@@H]13 (some centres not stated) | 0.35 µg/mL (≈ 1.06 µM) | > 250 µg/mL | 27.7 µg/mL (≈ 83.7 µM) | 214 µg/mL (≈ 647 µM) | 8.87 µg/mL (≈ 26.8 µM) | 37.3 µg/mL (≈ 113 µM) | 2.53 µg/mL (≈ 7.66 µM) | 12.4 µg/mL (≈ 37.7 µM) | 52.5 µg/mL (≈ 159 µM) | > 250 µg/mL | 0.52 µg/mL (≈ 1.57 µM) | 8.82 µg/mL (≈ 26.7 µM) | 30.8 µg/mL (≈ 93.3 µM) | 91.9 µg/mL (≈ 278 µM) | 5.19 µg/mL (≈ 15.7 µM) | 30 µg/mL (≈ 90.8 µM) | 2.08 µg/mL (≈ 6.29 µM) | > 250 µg/mL
4 | COc1cccc2c1C(=O)c1c(O)c3c(c(O)c1C2=O)C[C@@](O)(C(=O)CO)C[C@@H]3O[C@H]1C[C@H](N)[C@H](O)[C@H](C)O1 [DOXORUBICIN] | 0.33 µg/mL (≈ 0.607 µM) | 6.6 µg/mL (≈ 12.1 µM) | 0.03 µg/mL (≈ 0.0552 µM) | 3.3 µg/mL (≈ 6.07 µM) | 0.04 µg/mL (≈ 0.0736 µM) | 2.67 µg/mL (≈ 4.91 µM) | < 0.03 µg/mL | 0.9 µg/mL (≈ 1.66 µM) | 0.07 µg/mL (≈ 0.129 µM) | 3.9 µg/mL (≈ 7.18 µM) | 0.08 µg/mL (≈ 0.147 µM) | 2.95 µg/mL (≈ 5.43 µM) | 0.28 µg/mL (≈ 0.515 µM) | 5.85 µg/mL (≈ 10.8 µM) | 0.09 µg/mL (≈ 0.166 µM) | 0.33 µg/mL (≈ 0.607 µM) | 0.4 µg/mL (≈ 0.736 µM) | 20.5 µg/mL (≈ 37.7 µM)
